pKi: −log10 of the molar value.
Molecular target: T1, hBK1 receptor (Homo sapiens, UniProt P46663)
T1 construct: expressed in transfected cells; host or cells: CHO cells (membrane homogenate)
T1 sequence (P46663 1-353): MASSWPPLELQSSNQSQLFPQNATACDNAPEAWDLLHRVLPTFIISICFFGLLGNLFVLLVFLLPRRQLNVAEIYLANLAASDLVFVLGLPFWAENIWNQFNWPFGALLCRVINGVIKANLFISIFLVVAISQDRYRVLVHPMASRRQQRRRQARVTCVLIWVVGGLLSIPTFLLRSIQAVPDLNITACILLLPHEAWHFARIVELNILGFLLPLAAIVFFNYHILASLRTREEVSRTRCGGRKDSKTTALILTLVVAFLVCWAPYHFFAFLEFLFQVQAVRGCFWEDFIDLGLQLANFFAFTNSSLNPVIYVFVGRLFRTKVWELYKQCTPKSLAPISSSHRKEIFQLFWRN
Assay: hBK1 receptor binding (radioligand displacement on CHO cell membranes)
Settings: membranes of CHO cells expressing the hBK1 receptor; 0.5 to 1.0 nM [3H]-kallidin (DesArg10, Leu9); 60 minutes at room temperature
Description: Description of the Method of hBK1 Receptor Binding
CHO cells expressing the hBK1 receptor are cultivated in Dulbecco's modified medium. The medium from confluent cultures is removed and the cells are washed with PBS buffer, scraped off and isolated by centrifugation. The cells are then homogenized in suspension and the homogenate is centrifuged and resuspended. The protein content is determined and the membrane preparation obtained in this manner is then frozen at −80° C. After thawing, 200 μl of the homogenate (50 to 100 μg of proteins/assay) are incubated at room temperature with 0.5 to 1.0 nM of kallidin (DesArg10, Leu9), [3,4-prolyl-3,43H(N)] and increasing concentrations of the test substance in a total volume of 250 μl for 60 minutes. The incubation is terminated by rapid filtration through GF/B glass fibre filters which had been pretreated with polyethyleneimine (0.3%). The protein-bound radioactivity is measured in a TopCount NXT. Non-specific binding is defined as radioactivity bound in the presence of 1.0 μM of […]. The concentration/binding curve is analysed using a computer-assisted nonlinear curve fitting. The Ki which corresponds to the test substance is determined using the data obtained in this manner. […]

## COc1cc(C)c(S(=O)(=O)N(C)CCOCC(=O)N(C)[C@H]2CC[C@H](OCCN(C)C)CC2)c(C)c1 [Example 1]
  pKi: 7.27

## COc1cc(C)c(S(=O)(=O)N(C)CCOCC(=O)N(C)[C@H]2CC[C@H](OCCN3CCCC3)CC2)c(C)c1 [Example 2]
  pKi: 7.82
